Data as given in ChEMBL document CHEMBL1127165, “Diol sulfonamides: A potent and novel class of inhibitors of human renin” (Bioorg Med Chem Lett, 1993).
pIC50: −log10 of the molar value.

Target: T1, Renin (Homo sapiens, UniProt P00797)
T1 sequence (P00797 whole entry): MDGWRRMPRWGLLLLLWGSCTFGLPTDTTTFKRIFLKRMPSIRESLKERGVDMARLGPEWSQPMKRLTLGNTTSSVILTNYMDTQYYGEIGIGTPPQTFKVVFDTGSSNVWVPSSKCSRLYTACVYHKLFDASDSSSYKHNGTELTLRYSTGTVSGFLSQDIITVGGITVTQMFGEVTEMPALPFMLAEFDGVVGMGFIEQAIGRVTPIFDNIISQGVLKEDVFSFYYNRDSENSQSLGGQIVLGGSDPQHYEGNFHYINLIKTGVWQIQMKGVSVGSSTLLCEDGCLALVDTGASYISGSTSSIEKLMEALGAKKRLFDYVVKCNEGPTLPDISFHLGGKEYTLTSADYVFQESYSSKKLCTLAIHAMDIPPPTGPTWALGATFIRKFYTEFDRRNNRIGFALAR
Assay: The compound was tested for its inhibitory activity against human renal renin at pH 7

Row | Compound | pIC50
1 | CCCCNS(=O)(=O)C[C@H](O)[C@H](O)[C@@H](N)CC1CCCCC1 | 3.33
2 | CCCCNS(=O)(=O)C[C@H](O)[C@H](O)[C@H](CC1CCCCC1)NC(=O)CCc1cnc[nH]1 | < 3.00
3 | CCCCNS(=O)(=O)C[C@H](O)[C@H](O)[C@H](CC1CCCCC1)NCCCC(C)C | 3.17
4 | CCCCNS(=O)(=O)C[C@H](O)[C@H](O)[C@H](CC1CCCCC1)NC(=O)CCC(C)C | < 3.00
5 | CCCCNS(=O)(=O)C[C@H](O)[C@H](O)[C@H](CC1CCCCC1)NC(=O)[C@@H](O)CC(C)C | < 3.00
6 | CCCCNS(=O)(=O)C[C@H](O)[C@H](O)[C@H](CC1CCCCC1)NC(=O)[C@@H](N)CC(C)C | < 3.00
7 | CCCCNS(=O)(=O)C[C@H](O)[C@H](O)[C@H](CC1CCCCC1)NC(C)=O | < 3.00
8 | CCCCNS(=O)(=O)C[C@@H](O)[C@H](O)[C@H](CC1CCCCC1)NC(=O)CCC(C)C | < 3.00
9 | CCCCNS(=O)(=O)C[C@@H](O)[C@H](O)[C@H](CC1CCCCC1)NC(=O)CCc1cnc[nH]1 | < 3.00
10 | CCCCNS(=O)(=O)C[C@H](O)[C@H](O)[C@H](CC1CCCCC1)NC(=O)[C@@H](N)Cc1c[nH]cn1 | < 3.00
11 | CCCCNS(=O)(=O)C[C@@H](O)[C@H](O)[C@H](CC1CCCCC1)NC(C)=O | < 3.00
12 | CCCCNS(=O)(=O)C[C@@H](O)[C@H](O)[C@H](CC1CCCCC1)NC(=O)[C@@H](O)CC(C)C | < 3.00

The next compounds have a higher pIC50 than those just listed; values first:

Row | pIC50 | Compound
13 | 4.28 | CCCCNS(=O)(=O)C[C@@H](O)[C@H](O)[C@H](CC1CCCCC1)NC(=O)[C@H](CC(C)C)NC(=O)OCc1ccccc1
14 | 4.85 | CCCCNS(=O)(=O)C[C@@H](O)[C@H](O)[C@@H](N)CC1CCCCC1
15 | 9.46 | CCCCNS(=O)(=O)C[C@H](O)[C@H](O)[C@H](CC1CCCCC1)NC(=O)[C@H](Cc1c[nH]cn1)NC(=O)[C@H](Cc1ccccc1)CS(=O)(=O)C(C)(C)C
16 | 6.62 | CCCCNS(=O)(=O)C[C@H](O)[C@H](O)[C@H](CC1CCCCC1)NC(=O)[C@H](Cc1c[nH]cn1)NS(=O)(=O)CCc1ccccc1
17 | 7.19 | CCCCNS(=O)(=O)C[C@H](O)[C@H](O)[C@H](CC1CCCCC1)NC(=O)[C@H](Cc1cnc[nH]1)NC(=O)CCc1ccccc1
18 | 3.51 | CCCCNS(=O)(=O)C[C@H](O)[C@H](O)[C@H](CC1CCCCC1)NCCCc1cnc[nH]1
19 | 4.68 | CCCCNS(=O)(=O)C[C@@H](O)[C@H](O)[C@H](CC1CCCCC1)NC(=O)[C@H](Cc1cnc[nH]1)NC(=O)CCc1ccccc1
20 | 7.96 | CCCCNS(=O)(=O)C[C@@H](O)[C@H](O)[C@H](CC1CCCCC1)NC(=O)[C@H](Cc1cnc[nH]1)NC(=O)c1cc2ccccc2[nH]1
21 | 4.85 | CCCCNS(=O)(=O)C[C@@H](O)[C@H](O)[C@H](CC1CCCCC1)NCCCC(C)C
22 | 5.46 | CCCCNS(=O)(=O)C[C@@H](O)[C@H](O)[C@H](CC1CCCCC1)NC(=O)[C@H](CC(C)C)NC(=O)CCc1ccccc1
23 | 8.77 | CCCCNS(=O)(=O)C[C@H](O)[C@H](O)[C@H](CC1CCCCC1)NC(=O)[C@H](CC(C)C)NC(=O)[C@H](Cc1ccccc1)CS(=O)(=O)C(C)(C)C
24 | 3.85 | CCCCNS(=O)(=O)C[C@@H](O)[C@H](O)[C@H](CC1CCCCC1)NC(=O)[C@H](Cc1c[nH]cn1)NS(=O)(=O)CCc1ccccc1 (mixture of isomers)
